Laboratory results: paper PMC5827532, “Triphenylphosphonium Moiety Modulates Proteolytic Stability and Potentiates Neuroprotective Activity of Antioxidant Tetrapeptides in Vitro” (Frontiers in Pharmacology, 2018)
Like-named read-outs stand apart in the source and are kept apart here.

Legend:
trypsin = molecular target: T1, trypsin (Sus scrofa, UniProt P00761); experiment: Tryptic cleavage of oligopeptides followed by reversed-phase HPLC; format: in vitro ADME, porcine; conditions: trypsin 5 μg/mL, PBS pH 7.4; for half-life at 0.5 mg/mL: pig, oligopeptide 0.5 mg/mL, read-out: 50% degradation rate (DR50)
T1 construct: purchased PanEco company (Russia); host or cells: porcine pancreas
T1 sequence (P00761 9-231): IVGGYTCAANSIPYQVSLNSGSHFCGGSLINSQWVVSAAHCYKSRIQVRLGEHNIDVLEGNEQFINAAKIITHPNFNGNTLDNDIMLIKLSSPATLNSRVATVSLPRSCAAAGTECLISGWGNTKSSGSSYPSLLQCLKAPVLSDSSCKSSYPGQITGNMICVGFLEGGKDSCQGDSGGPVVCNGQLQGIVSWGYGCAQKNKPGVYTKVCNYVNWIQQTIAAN
Procedure: The reaction mixture containing an oligopeptide (0.5 mg/mL) and trypsin (5 μg/mL) in phosphate buffered saline (PBS, pH 7.4) was incubated for different time intervals, and aliquots of digestion products were collected for reversed-phase high-performance liquid chromatography (HPLC). HPLC analysis was carried out on a Dionex UltiMate 3000 system (Thermo Scientific) using a Kromasil C18 column, 5 μm, 4.6 mm × 150 mm (AkzoNobel). Mobile phase contained (A) acetonitrile with 0.1% trifluoroacetic acid, (B) milli-Q water with 0.1% trifluoroacetic acid. Gradient scheme was as follows, 0–10 min: from 100% A to 100% B, 10–20 min: 100% A to 100% B, 20–25 min: 100% B. Flow rate was 0.5 mL/min; injection volume was 10 μL. The detection was performed at wavelengths of 220 and 260 nm. Chromatographic data were collected and treated with the aid of Chromeleon 6.80 software (Thermo Scientific). Peak height of the uncleaved oligopeptides was measured to calculate remaining concentration of the oligopeptides after tryptic cleavage. Concentration values were presented as mean ± SD (n = 3).
Enzymatic cleavage of the oligopeptides was performed in PBS solution using pancreatic trypsin as a pharmacologically relevant endopeptidase ([Vlieghe et al., 2010]; [Danial et al., 2012]). To compare proteolytic resistance of the initial and TPP-modified oligopeptides, the reaction conditions were optimized to provide a relatively slow kinetics. The concentration of uncleaved oligopeptides was detected by means of HPLC. In the absence of trypsin, both the unmodified tetrapeptides and TPP derivatives were stable during at least 48 h incubation at ambient temperature.

PC-12 cells [1] = experiment: H2O2-induced oxidative stress in cells (DCFDA fluorescence); format: cell-based, rat; conditions: 5 mM, 1 h, 100 mM H2O2, HBSS
Procedure: PC-12 cells were seeded in a 96-well plate and allowed to form a subconfluent monolayer. The cells were washed with Hank’s balanced salt solution (HBSS), pre-stained with 20 μM DCFDA and rewashed with HBSS two times. The oxidative stress in the stained cells was induced by incubating them in HBSS solution containing 100 mM H2O2 for 1 h in CO2-incubator. The synthesized oligopeptides or glutathione were added to the extracellular solution in the concentration range from 1 to 10 mM in HBSS and incubated for 1 h. The bottom fluorescent signal was acquired from the treated cells on an Infinite M200PRO microplate analyzer (TECAN) at λex = 488 nm and λem = 535 nm.

PC-12 cells [2] = system: PC-12 cells
Procedure: (§1) PC-12 cells were subjected to oxidative damage by CoCl2, L-glutamic acid, or menadione and treated with the oligopeptides as follows. Briefly, the pre-grown cells were seeded in a 96-well plate at a density of 60 000 cells per well and cultured overnight in FBS-containing α-MEM. Next day, the medium was replaced by a fresh one without FBS, and further manipulations were performed in FBS-free medium. The oxidative agents and oligopeptides were supplemented to the medium in three ways: (i) the cells were pre-cultured in the presence of oligopeptides for 24 h, then the medium was replaced by a fresh one supplemented with a damaging factor and the cells were further cultured with the factor for 24 h (CoCl2, L-glutamic acid) or 3 h (menadione) (‘pretreatment’); (ii) the damaging factor and oligopeptide were added together to cells and cultured for 24 h (CoCl2, L-glutamic acid) or 3 h (menadione) followed by medium replacement (‘cotreatment’); (iii) following treatment with menadione, the cells were additionally cultured with the oligopeptides for 24 h (‘posttreatment’). The concentration of compounds was as follows: oligopeptides 5 mM, CoCl2 2.5 mM, L-glutamic acid 50 mM, menadione 25 μM.
(§2) Eventually, viability of the treated cells was evaluated with the use of MTS assay (Promega) on an Infinite M200 PRO microplate analyzer (TECAN). The cell viability was presented as a percentage of that of the control cells cultured in the absence of compounds (100% viability).

PC-12 cells [3] = experiment: Cytoprotection against L-glutamic acid-induced damage (MTS assay); conditions: 50 mM LGlu
Procedure: as §1, §2

PC-12 cells [4] = experiment: Cytoprotection against menadione-induced damage (MTS assay); conditions: for protective effect: pretreatment 24 h, 5 mM, menadione 25 μM
Procedure: (§3) PC-12 cells were subjected to oxidative damage by CoCl2, L-glutamic acid, or menadione and treated with the oligopeptides as follows. Briefly, the pre-grown cells were seeded in a 96-well plate at a density of 60 000 cells per well and cultured overnight in FBS-containing α-MEM. Next day, the medium was replaced by a fresh one without FBS, and further manipulations were performed in FBS-free medium.
as §2

[5] = same reaction; ref Akhmadishina et al., 2017; cited from earlier work
[6] = system: prostate cancer (PC-3) cells; conditions: same supplementation; ref Akhmadishina et al., 2017; cited from earlier work
[7] = Fenton-like CoCl2/H2O2 reaction, ROS detected with DCFDA probe
Procedure: Fenton-like reaction was initiated by mixing 0.2 mM cobalt chloride (CoCl2) and 22 mM hydrogen peroxide (H2O2) in PBS and carried out for 60 min in the presence of or without a serially diluted oligopeptide. ROS generated in the Fenton reaction were detected by using DCFDA fluorescent probe (5 μM) at λex = 488 nm and λem = 535 nm. The effect of oligopeptides was measured as a percentage of ROS generation rate in the control reaction without effectors (100%) ([Akhmadishina et al., 2017]).

PC-12 cells [8] = experiment: MTT proliferation (cytotoxicity) assay; format: cell-based, rat; conditions: over the whole concentration range (1 μM to 3.2 mM)
Procedure: (§4) PC-12 rat pheochromocytoma cell line (ATTC) and human skin fibroblasts (HSF) were used. HSF were isolated as detailed in ([Tsepaeva et al., 2017]). The cells were cultured aseptically in α-MEM containing 10% fetal bovine serum (FBS), 2 mM L-glutamine, 100 U/mL penicillin and 100 μg/mL streptomycin at 37°C in humidified air atmosphere with 5% CO2.
(§5) The cytotoxicity of the oligopeptides was evaluated in the concentration range from 1 μM to 3.2 mM by means of the MTT proliferation assay in 96-well microplates as described in [Tsepaeva et al. (2017)]. The cell viability was presented as a percentage of control cells grown without compounds (100% viability value). Half-maximal inhibitory concentrations (IC50) were calculated from cell viability curves using OriginPro 8.0 software.

[9] = system: human skin fibroblasts (HSF); experiment: MTT proliferation (cytotoxicity) assay; format: cell-based
Procedure: as §4, §5

Dynamic light scattering = format: physicochemical; conditions: data not shown
[10] = Cytoprotection against L-glutamic acid-induced damage (MTS assay); conditions: rat
Procedure: as §1, §2

[11] = Cytoprotection against menadione-induced damage (MTS assay); conditions: rat, PC-12 cells
Procedure: as §3, §2

For N=C(N)NCCC[C@H](NC(=O)[C@@H](N)Cc1ccc(O)cc1)C(=O)N[C@@H](Cc1ccccc1)C(=O)N[C@@H](CCCCN)C(N)=O [YRFK-NH2], the half-life at 0.5 mg/mL (trypsin; isolated enzyme trypsin) was ~6.17 h.
In the case of N[C@@H](CCC(=O)N[C@@H](CS)C(=O)NCC(=O)O)C(=O)O [GSH, γ-Glu-Cys-Gly], the “effect on DCFDA signal” value (PC-12 cells [1]) is reported as “almost completely decreased the signal”, the “effect on cell damage” value (PC-12 cells [2]; cotreatment, 5 mM, CoCl2 2.5 mM) is reported as “insignificantly diminished cell damage” and the protective effect (PC-12 cells [2]; pretreatment 24 h, 5 mM, CoCl2 2.5 mM) is reported as “did not exhibit a protective effect”. For the same molecule, the protective effect (PC-12 cells [3]; 5 mM) was “relatively low protective effect”, the viability at 5000 µM (PC-12 cells [4]; Rattus norvegicus, PC-12, 24 h, read-out: cell viability) was 32% and the protective effect (PC-12 cells [4]) was “not when applied prior to the treatment”. For the same molecule, the EC50 [5] was 544 ± 39 µM and the effect on proliferation [6] was “greatly stimulated proliferation”.
For NCCCC[C@H](NC(=O)[C@H](Cc1ccccc1)NC(=O)[C@@H](CCCN=C(N)N)NC(=O)[C@@H](N)Cc1ccc(O)cc1)C(N)=O [YrFK-NH2], the half-life at 0.5 mg/mL (trypsin; isolated enzyme trypsin) was ~14.6 h.
In the case of N=C(N)NCCC[C@H](NC(=O)[C@H](Cc1ccc(O)cc1)NC(=O)CC[P+](c1ccccc1)(c1ccccc1)c1ccccc1)C(=O)N[C@@H](Cc1ccccc1)C(=O)N[C@@H](CCCCN)C(N)=O [TPP-3-YRFK-NH2], the half-life at 0.5 mg/mL (trypsin; pancreatic trypsin in PBS) is reported as ~0.767 h and the “extent of cleavage before plateau” value (trypsin) is reported as ~80%.
In the case of N=C(N)NCCC[C@H](NC(=O)[C@H](Cc1ccc(O)cc1)NC(=O)CCCCC[P+](c1ccccc1)(c1ccccc1)c1ccccc1)C(=O)N[C@@H](Cc1ccccc1)C(=O)N[C@@H](CCCCN)C(N)=O [TPP-6-YRFK-NH2], the half-life at 0.5 mg/mL (trypsin; pancreatic trypsin in PBS) is reported as ~1.17 h, the “time during which cleavage was initially retarded” value (trypsin) is reported as “approximately 60 min” and the “concentrations at which the inhibitory effect toward the reaction was observed” value ([7]; 0.2 mM CoCl2, 22 mM H2O2, PBS) is reported as > 250 µM. The EC50 ([7]; ROS generation in CoCl2/H2O2 reaction, read-out: half-maximal inhibitory concentration (EC50)) was 500 ± 25 µM, the increase of proliferation (PC-12 cells [8]) was “up to 20%” and the “concentration at which cell proliferation was decreased” value ([9]; effect disappeared in lower and higher concentration ranges) was “around 100 μM”. For the same molecule, the cell viability (PC-12 cells [2]; rat) was ~126% and the aggregative properties (Dynamic light scattering) was “formed well-defined submicron aggregates”.
For [Cl-].[Cl-].[Co+2] [CoCl2, cobalt (II) chloride], the “cell viability, damaging factor alone” value (PC-12 cells [2]; CoCl2 2.5 mM, 24 h) was 55%.
With N=C(N)NCCC[C@@H](NC(=O)[C@H](Cc1ccc(O)cc1)NC(=O)CCCCC[P+](c1ccccc1)(c1ccccc1)c1ccccc1)C(=O)N[C@@H](Cc1ccccc1)C(=O)N[C@@H](CCCCN)C(N)=O [TPP-6-YrFK-NH2] the “reaction time without any degradation” value (trypsin) was “at least 17 h”, the “half-maximal inhibition of proliferation” value ([9]; MTT, 3 days) was “millimolar concentrations” and the protective effect (PC-12 cells [3]; pretreatment, supplemented 24 h prior to damage) was “completely prevented cell damage”. For the same molecule, the protective effect (PC-12 cells [4]) was “effectively prevented cell damage” and the aggregative properties (Dynamic light scattering) was “formed well-defined submicron aggregates”.
In the case of N[C@@H](CCC(=O)O)C(=O)O [^LGlu, L-glutamic acid], the viability at 24 h, 50 mM [10] is reported as 37.1%.
With CC1=CC(=O)c2ccccc2C1=O [Men, menadione] the viability at 3 h, 25 μM [11] was ~17%.
